This note sets out measurements from patent US7109243B2 (IRM LLC, priority 2003, dated 2006).

A value given as a limit tells only on which side of the number the result lay.

The target of one assay is T1, Cathepsin K (Homo sapiens, UniProt P43235).
T1 sequence (P43235 115-329): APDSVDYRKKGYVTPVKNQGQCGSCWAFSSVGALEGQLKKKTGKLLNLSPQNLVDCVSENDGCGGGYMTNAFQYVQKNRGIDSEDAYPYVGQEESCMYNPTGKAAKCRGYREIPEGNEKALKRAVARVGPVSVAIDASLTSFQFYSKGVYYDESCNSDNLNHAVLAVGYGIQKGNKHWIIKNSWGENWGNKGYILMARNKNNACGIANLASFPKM
The experiment in a line: Cathepsin K inhibition assay (fluorogenic peptide substrate); selectivity ratio vs cathepsin S. To be noted: ratio of cathepsin K inhibition constant to cathepsin S inhibition constant; Table II. The format is biochemical. An outline of the steps:
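Fluorogenic kinetic assay, started with acetyl-Lys-His-Pro-Lys-aminocarbamoylcoumarin at 40 μM final, hydrolysis followed at ex 380/em 450 nm. Apparent inhibition constants from progress curves, converted to competitive inhibition constants. Selectivity expressed as isozyme inhibition constant divided by cathepsin S inhibition constant.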

A further assay concerns the target Cathepsin S (Homo sapiens, UniProt P25774). In words: Cathepsin S inhibition assay (fluorogenic peptide substrate). The class given is biochemical. Conditions: Table II, compounds of Formula I; read-out: Ki Cat. S. An outline of the steps: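 Ki values come from nonlinear fitting of inhibited hydrolysis rates, taking free and total inhibitor concentrations as equal. Rates measured as rising fluorescence at 380/450 nm after reaction start with 50 μM final acetyl-HPVK-aminocarbamoylcoumarin.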

Cathepsin S, sequence (P25774 115-331, species assumed): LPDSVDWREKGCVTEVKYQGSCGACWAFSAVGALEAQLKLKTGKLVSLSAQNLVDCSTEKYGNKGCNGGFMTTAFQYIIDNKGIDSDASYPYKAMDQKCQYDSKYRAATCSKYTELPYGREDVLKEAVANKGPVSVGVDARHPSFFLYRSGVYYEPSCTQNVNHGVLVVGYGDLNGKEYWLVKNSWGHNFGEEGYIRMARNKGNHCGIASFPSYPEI

Turning to `O=C(N[C@@H](CC1CCCCC1)C(=O)NCCNc1ccc(OC(F)(F)F)cc1)c1ccc(-c2ccc(C(F)(F)F)cc2)o1` [Compound 213, (S)-5-(4-Trifluoromethyl-phenyl)-furan-2-carboxylic acid {2-cyclohexyl-1-[2-(4-trifluoromethoxy-phenylamino)-ethylcarbamoyl]-ethyl}-amide], the “Selectivity for Cat. S over Cat. K” value at Cathepsin K is given as “+++ (+++, >1000)”. Also, at Cathepsin S, the Ki was below 100 nM.

In the case of `COc1ccc(NCCNC(=O)C(NC(=O)c2cccc(C)c2)c2ccccc2OCc2ccccc2)cc1` (centres unmarked) [Compound 214, N-{(2-Benzyloxy-phenyl)-[2-(4-methoxy-phenylamino)-ethylcarbamoyl]-methyl}-3-methyl-benzamide], the “Selectivity for Cat. S over Cat. K” value on Cathepsin K is recorded as “+++ (+++, >1000)”. For the same compound, at Cathepsin S, the Ki was below 100 nM.

In the case of `O=C(N[C@@H](CC1CCCCC1)C(=O)NCCNc1ccc(OC(F)(F)F)cc1)c1ccc(-c2ccc(OC(F)(F)F)cc2)o1` [Compound 215, (S)-5-(4-Trifluoromethoxy-phenyl)-furan-2-carboxylic acid {2-cyclohexyl-1-[2-(4-trifluoromethoxy-phenylamino)-ethylcarbamoyl]-ethyl}-amide], the “Selectivity for Cat. S over Cat. K” value at Cathepsin K was “+++ (+++, >1000)”. Also, at Cathepsin S, the Ki was below 100 nM.

With `COc1ccc(NCCNC(=O)C(NC(=O)c2cccc(C)c2)c2ccccc2Cl)cc1` (centres unmarked) [Compound 216, N-{(2-Chloro-phenyl)-[2-(4-methoxy-phenylamino)-ethylcarbamoyl]-methyl}-3-methyl-benzamide], the “Selectivity for Cat. S over Cat. K” value on Cathepsin K is recorded as “+++ (+++, >1000)”. Besides, the Ki on Cathepsin S was below 1000 nM.

For the compound `COc1ccc(NCCNC(=O)C(NC(=O)c2cccc(C)c2)c2ccc(OCc3ccccc3)cc2)cc1` (centres unmarked) [Compound 217, N-{(4-Benzyloxy-phenyl)-[2-(4-methoxy-phenylamino)-ethylcarbamoyl]-methyl}-3-methyl-benzamide], the “Selectivity for Cat. S over Cat. K” value on Cathepsin K is given as “+++ (+++, >1000)”. Also, on Cathepsin S, the Ki is below 1000 nM.

Regarding `COc1ccc(NCCNC(=O)C(NC(=O)c2cccc(C)c2)c2cccc3ccccc23)cc1` (centres unmarked) [Compound 218, N-{[2-(4-Methoxy-phenylamino)-ethylcarbamoyl]-naphthalen-1-yl-methyl}-3-methyl-benzamide], on Cathepsin K, the “Selectivity for Cat. S over Cat. K” value is given as “+++ (+++, >1000)”. On Cathepsin S, the Ki was below 1000 nM.

Consider `O=C(N[C@@H](CC1CCCCC1)C(=O)NCCNc1ccc(OC(F)(F)F)cc1)c1ccc(-c2ccccc2C(F)(F)F)o1` [Compound 219, (S)-5-(2-Trifluoromethyl-phenyl)-furan-2-carboxylic acid {2-cyclohexyl-1-[2-(4-trifluoromethoxy-phenylamino)-ethylcarbamoyl]-ethyl}-amide], for which the “Selectivity for Cat. S over Cat. K” value at Cathepsin K was “++ (++, >100)”. Besides, at Cathepsin S, the Ki is below 100 nM.

In the case of `COc1ccc(NCCNC(=O)C(NC(=O)c2cccc(C)c2)c2ccccc2C)cc1` (centres unmarked) [Compound 220, N-{[2-(4-Methoxy-phenylamino)-ethylcarbamoyl]-o-tolyl-methyl}-3-methyl-benzamide], the “Selectivity for Cat. S over Cat. K” value on Cathepsin K is “++ (++, >100)”. Further, at Cathepsin S, the Ki was below 1000 nM.

For `O=C(N[C@@H](CC1CCCCC1)C(=O)NCCNc1ccc(OC(F)(F)F)cc1)c1ccc(-n2cncn2)cc1` [Compound 221, (S)-N-{2-Cyclohexyl-1-[2-(4-trifluoromethoxy-phenylamino)-ethylcarbamoyl]-ethyl}-4-[1,2,4]triazol-1-yl-benzamide], the “Selectivity for Cat. S over Cat. K” value at Cathepsin K is given as “+ (+, >10)”. Further, the Ki on Cathepsin S is below 100 nM.

In the case of `COc1ccc(NCCNC(=O)C(NC(=O)c2cccc(C)c2)c2ccc(Cl)cc2Cl)cc1` (centres unmarked) [Compound 222, N-{(2,4-Dichloro-phenyl)-[2-(4-methoxy-phenylamino)-ethylcarbamoyl]-methyl}-3-methyl-benzamide], on Cathepsin K, the “Selectivity for Cat. S over Cat. K” value is listed as “+++ (+++, >1000)”. Further, the Ki on Cathepsin S was below 100 nM.

`COc1ccc(NCCNC(=O)C(NC(=O)c2cccc(C)c2)c2cccc(Cl)c2Cl)cc1` (centres unmarked) [Compound 223, N-{(2,3-Dichloro-phenyl)-[2-(4-methoxy-phenylamino)-ethylcarbamoyl]-methyl}-3-methyl-benzamide]: the “Selectivity for Cat. S over Cat. K” value at Cathepsin K was “++ (++, >100)”. On Cathepsin S, the Ki is below 1000 nM.

`COc1ccc(NCCNC(=O)C(NC(=O)c2cccc(C)c2)c2ccc(C)cc2C)cc1` (centres unmarked) [Compound 224, N-{(2,4-Dimethyl-phenyl)-[2-(4-methoxy-phenylamino)-ethylcarbamoyl]-methyl}-3-methyl-benzamide]: the “Selectivity for Cat. S over Cat. K” value on Cathepsin K was “++ (++, >100)”. In addition, at Cathepsin S, the Ki was below 1000 nM.

Consider `COc1ccc(NCCNC(=O)C(NC(=O)c2cccc(C)c2)c2ccc(OC)cc2OC)cc1` (centres unmarked) [Compound 225, N-{(2,4-Dimethoxy-phenyl)-[2-(4-methoxy-phenylamino)-ethylcarbamoyl]-methyl}-3-methyl-benzamide], for which, at Cathepsin K, the “Selectivity for Cat. S over Cat. K” value is “+ (+, >10)”. The Ki at Cathepsin S was below 10000 nM.

As for `COc1ccc(NCCNC(=O)C(NC(=O)c2cccc(C)c2)c2cccs2)cc1` (centres unmarked) [Compound 226, N-{[2-(4-Methoxy-phenylamino)-ethylcarbamoyl]-thiophen-2-yl-methyl}-3-methyl-benzamide], at Cathepsin K, the “Selectivity for Cat. S over Cat. K” value is recorded as “+ (+, >10)”. At Cathepsin S, the Ki is below 10000 nM.

For the compound `COc1ccc(NCCNC(=O)C(NC(=O)c2cccc(C)c2)c2ccc(F)cc2)cc1` (centres unmarked) [Compound 227, N-{(4-Fluoro-phenyl)-[2-(4-methoxy-phenylamino)-ethylcarbamoyl]-methyl}-3-methyl-benzamide], the “Selectivity for Cat. S over Cat. K” value at Cathepsin K is “++ (++, >100)”. On Cathepsin S, the Ki was below 1000 nM.

For the compound `COc1ccc(NCCNC(=O)[C@H](Cc2ccc(O)cc2)NC(=O)c2cccc(C)c2)cc1` [Compound 228, (S)-N-{2-(4-Hydroxy-phenyl)-1-[2-(4-methoxy-phenylamino)-ethylcarbamoyl]-ethyl}-3-methyl-benzamide], the “Selectivity for Cat. S over Cat. K” value at Cathepsin K was “+++ (+++, >1000)”. Further, on Cathepsin S, the Ki was below 100 nM.

For `COc1ccc(NCCNC(=O)[C@H](Cc2ccc(Cl)cc2Cl)NC(=O)c2cccc(C)c2)cc1` [Compound 229, (S)-N-{2-(2,4-Dichloro-phenyl)-1-[2-(4-methoxy-phenylamino)-ethylcarbamoyl]-ethyl}-3-methyl-benzamide], the “Selectivity for Cat. S over Cat. K” value on Cathepsin K is “+++ (+++, >1000)”. On Cathepsin S, the Ki was below 100 nM.

Consider `COc1ccc(NCCNC(=O)[C@H](Cc2cc(F)cc(F)c2)NC(=O)c2cccc(C)c2)cc1` [Compound 230, (S)-N-{2-(3,5-Difluoro-phenyl)-1-[2-(4-methoxy-phenylamino)-ethylcarbamoyl]-ethyl}-3-methyl-benzamide], for which the “Selectivity for Cat. S over Cat. K” value on Cathepsin K is given as “+++ (+++, >1000)”. In addition, the Ki on Cathepsin S was below 100 nM.

Take `COc1ccc(NCCNC(=O)[C@H](Cc2ccc(Cl)c(Cl)c2)NC(=O)c2cccc(C)c2)cc1` [Compound 231, (S)-N-{2-(3,4-Dichloro-phenyl)-1-[2-(4-methoxy-phenylamino)-ethylcarbamoyl]-ethyl}-3-methyl-benzamide]: the “Selectivity for Cat. S over Cat. K” value on Cathepsin K was “+++ (+++, >1000)”. For the same compound, the Ki at Cathepsin S is below 100 nM.

For the compound `O=C(N[C@@H](CC1CCCCC1)C(=O)NCCNc1ccc(OC(F)(F)F)cc1)c1ccc(OCc2ccccc2)cc1` [Compound 232, (S)-4-Benzyloxy-N-{2-cyclohexyl-1-[2-(4-trifluoromethoxy-phenylamino)-ethylcarbamoyl]-ethyl}-benzamide], the “Selectivity for Cat. S over Cat. K” value at Cathepsin K is on record as “+ (+, >10)”. The Ki at Cathepsin S is below 100 nM.

Regarding `O=C(N[C@@H](CC1CCCCC1)C(=O)NCCNc1ccc(OC(F)(F)F)cc1)c1ccc(-c2ccccc2)cc1` [Compound 234, (S)-Biphenyl-4-carboxylic acid {2-cyclohexyl-1-[2-(4-trifluoromethoxy-phenylamino)-ethylcarbamoyl]-ethyl}-amide], the “Selectivity for Cat. S over Cat. K” value at Cathepsin K is given as “+ (+, >10)”. Besides, the Ki at Cathepsin S is below 100 nM.

Consider `COc1ccc(NCCNC(=O)[C@H](Cc2cccc(F)c2)NC(=O)c2cccc(C)c2)cc1` [Compound 236, (S)-N-{2-(3-Fluoro-phenyl)-1-[2-(4-methoxy-phenylamino)-ethylcarbamoyl]-ethyl}-3-methyl-benzamide], for which, at Cathepsin K, the “Selectivity for Cat. S over Cat. K” value is listed as “+++ (+++, >1000)”. In addition, the Ki on Cathepsin S was below 100 nM.

Turning to `COc1ccc(NCCNC(=O)[C@H](Cc2ccc(F)c(F)c2)NC(=O)c2cccc(C)c2)cc1` [Compound 237, (S)-N-{2-(3,4-Difluoro-phenyl)-1-[2-(4-methoxy-phenylamino)-ethylcarbamoyl]-ethyl}-3-methyl-benzamide], the “Selectivity for Cat. S over Cat. K” value at Cathepsin K is listed as “+++ (+++, >1000)”. At Cathepsin S, the Ki was below 100 nM.

`COc1ccc(NCCNC(=O)[C@H](Cc2cccc(C)c2)NC(=O)c2cccc(C)c2)cc1` [Compound 238, (S)-N-{1-[2-(4-Methoxy-phenylamino)-ethylcarbamoyl]-2-m-tolyl-ethyl}-3-methyl-benzamide]: the “Selectivity for Cat. S over Cat. K” value at Cathepsin K is “+ (+, >10)”. In addition, the Ki at Cathepsin S was below 100 nM.

Turning to `COc1ccc(NCCNC(=O)[C@H](Cc2ccccc2C(F)(F)F)NC(=O)c2cccc(C)c2)cc1` [Compound 239, (S)-N-[1-[2-(4-Methoxy-phenylamino)-ethylcarbamoyl]-2-(2-trifluoromethyl-phenyl)-ethyl]-3-methyl-benzamide], the “Selectivity for Cat. S over Cat. K” value on Cathepsin K is given as “+++ (+++, >1000)”. Also, at Cathepsin S, the Ki is below 100 nM.
